Holding throughout (assay): NCI anticancer screen, dose series, 48 h
Assay [1] deals with UACC-257 melanoma.
Assay [2] concerns UO-31 renal.
The test system of assay [3] is PC-3 prostate.
Assay [4] concerns RXF 393 renal.
The subject of assay [5] is MCF7 breast.
For assay [6], the system named is HCT-116 colon.
Assay [7] concerns A498 renal.
Assay [8] concerns EKVX NSCLC.
Assay [9] deals with SW-620 colon.
Assay [10] has as its system LOX IMVI melanoma.
Assay [11] relates to TK-10 renal.
Assay [12] relates to UACC-62 melanoma.
The test system of assay [13] is HT29 colon.
Assay [14] concerns OVCAR-3 ovarian.
The test system of assay [15] is SK-MEL-28 melanoma.
For assay [16], the system named is U251 CNS.
For assay [17], the system named is MDA-MB-231 breast.
Assay [18] relates to SK-OV-3 ovarian.
The test system of assay [19] is OVCAR-4 ovarian.
The subject of assay [20] is ACHN renal.

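Where inhibition never reached the appropriate level, the endpoint shown equals the highest concentration tested. Otherwise, values were interpolated linearly from a five-concentration, 48-hour dose response in 96-well plates. TGI: total growth inhibition.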

The results in this text go back to PubChem BioAssay (NCI).

On to `Cc1c2ccccc2c(C2C3C(=O)N(c4cccc5ccccc45)C(=O)C3ON2Cc2ccc(CC(N)=O)cc2)c2ccccc12` (stereo not given), for which the TGI is 37 µM in assay [1]; more than 50 µM in assay [2]; more than 50 µM in [3]; 40 µM in assay [4]; more than 50 µM in [5]; more than 50 µM in assay [6]. Moreover, the TGI in assay [7] is more than 50 µM; in [8], 48.9 µM; in [9], more than 50 µM; in assay [10], more than 50 µM; in [11], more than 50 µM; in assay [12] it was 47.3 µM. Besides, the TGI is 27 µM in assay [13]; more than 50 µM in assay [14]; more than 50 µM in assay [15]; more than 50 µM in assay [16]; more than 50 µM in assay [17]; more than 50 µM in assay [18]. In addition, the TGI in assay [19] and in [20] was more than 50 µM throughout.
As for `O=C(CCc1ccc(O)c(O)c1)NCCc1cc(O)c(O)c(O)c1`, the TGI was more than 100 µM in assay [1]; more than 100 µM in assay [2]; more than 100 µM in [3]; more than 100 µM in assay [4]; 21.7 µM in assay [5]; 33 µM in assay [6]. Moreover, the TGI in assay [7] is more than 100 µM; in assay [8], 53 µM; in [9], 35.5 µM; in [10], 31.7 µM; in assay [11], more than 100 µM; in [12] it was more than 100 µM. Also, the TGI in [13] was 35.4 µM; in assay [14], 34.5 µM; in assay [15], more than 100 µM; in [16], 31.7 µM; in assay [17] it was 28.5 µM; in assay [18] it was more than 100 µM. Moreover, the TGI in assay [19] is 34.5 µM; in [20], more than 100 µM.
As to `O=c1oc2ccc3ccccc3c2cc1-c1cn2c(n1)sc1ccccc12`, the TGI in [1], in assay [2], in assay [3], in [4], in assay [5] and in assay [6] was more than 100 µM throughout. The TGI in [7], in assay [8], in [9], in [10], in assay [11] and in assay [12] was more than 100 µM each time. Moreover, the TGI in assay [13], in assay [14], in [15], in assay [16], in assay [17] and in [18] was more than 100 µM in each case. Also, the TGI in assay [19] and in [20] was more than 100 µM each time.
In the case of `COC(=O)c1ccc(C)cc1C1CN=NC12Cc1cc(C)ccc1C2=O` (stereo not given), the TGI in [1] is more than 94.2 µM; in assay [2], more than 85.1 µM; in assay [3] it was 58.1 µM; in assay [4] it was more than 71.6 µM; in assay [5], 24 µM; in assay [6] it was 28.6 µM. The TGI in assay [7] is 55.5 µM; in assay [8], more than 95.5 µM; in [9], more than 100 µM; in [10], 42.9 µM; in [11] it was 71.7 µM; in assay [12] it was more than 87.3 µM. Also, the TGI was 15.2 µM in [13]; more than 80.1 µM in assay [14]; more than 100 µM in [15]; more than 70.6 µM in [16]; 64.9 µM in [17]; more than 100 µM in assay [18]. Besides, the figures for the TGI in assay [19] and in assay [20] were 98.7 µM and more than 100 µM, respectively.
For the compound `CCCCCCCCCCCCCCCC(=O)Nc1ccn(C2CCC(COP(=O)(O)OCC3OC(n4cc(F)c(=O)[nH]c4=O)CC3OC(C)=O)O2)c(=O)n1` (stereo not given), the TGI in [1] is 53.6 µM; in assay [2] it was 28.9 µM; in [3], 56.8 µM; in assay [4], more than 100 µM; in assay [5], 44.1 µM; in assay [6], 34.1 µM. Besides, the TGI in assay [7] was more than 100 µM; in assay [8], more than 100 µM; in assay [9], more than 52.5 µM; in assay [10] it was 39.8 µM; in assay [11], more than 76.7 µM; in [12], 61.6 µM. Also, the TGI was 32.4 µM in [13]; 59 µM in [14]; 43.8 µM in assay [15]; 36.3 µM in [16]; more than 61.6 µM in [17]; more than 90.2 µM in [18]. Further, the values for the TGI in [19] and in assay [20] were more than 86.5 µM and more than 100 µM, respectively.
For `Cc1[nH]c2nc3c(ncn3COCCO)c(=O)n2c1C(c1ccccc1)(c1ccccc1)c1ccccc1`, the TGI is 27.4 µM in assay [1]; more than 76.1 µM in assay [2]; 26 µM in assay [3]; 26.2 µM in assay [4]; 23.1 µM in assay [5]; 29.3 µM in [6]. Moreover, the TGI in [7] is 33.3 µM; in [8], 41.8 µM; in [9], more than 56.4 µM; in assay [10], 27.8 µM; in assay [11] it was 30.8 µM; in assay [12] it was 24 µM. Besides, the TGI stood at 24.2 µM in assay [13]; 15.4 µM in [14]; 43.5 µM in assay [15]; 28 µM in assay [16]; 28.3 µM in assay [17]; 32.8 µM in [18]. Also, the TGI in [19] turned out to be 30.4 µM; in assay [20], 35.5 µM.
`O=C1Nc2ccccc2/C1=C\c1c(-c2ccccc2)nc2n1CCS2`: the TGI was 45.9 µM in [1]; 80.6 µM in assay [2]; 48.3 µM in assay [3]; 47.2 µM in assay [4]; 39.3 µM in [5]; 49.2 µM in [6]. In addition, the TGI was 68.8 µM in [7]; 52 µM in [8]; more than 100 µM in [9]; 38.6 µM in assay [10]; 34.3 µM in [11]; 27.4 µM in assay [12]. Also, the TGI in [13] is 39.9 µM; in [14] it was 41.8 µM; in assay [15], more than 100 µM; in assay [16], 45.3 µM; in assay [17], 47 µM; in assay [18], 67.1 µM. In addition, the TGI in assay [19] and in assay [20] was more than 100 µM each time.
On to `O=C(O)C1=CN(c2ccncc2)C(c2ccco2)=CC1c1ccccc1[N+](=O)[O-]` (stereo not given), for which the TGI in assay [1] came out at 5.35 µM; in assay [2], 23.3 µM; in assay [3], 28 µM; in [4], 15.5 µM; in [5], 10.7 µM; in assay [6], 3.66 µM. In addition, the TGI in [7] was 28.7 µM; in assay [8] it was 23.8 µM; in assay [9] it was more than 31.7 µM; in assay [10], 3.85 µM; in [11], 15.9 µM; in [12] it was 33.6 µM. Besides, the TGI amounted to 6.18 µM in assay [13]; 21.2 µM in assay [14]; 40.9 µM in assay [15]; 24.2 µM in assay [16]; 30.6 µM in assay [17]; 33.6 µM in assay [18]. Also, the TGI in assay [19] was determined as 28.2 µM; in assay [20], 3.59 µM.
As to `COc1ccccc1N1C(=O)CSC1c1cc(OC)c(OC)c(OC)c1` (stereo not given), the TGI in assay [1], in assay [2], in assay [3], in [4], in assay [5] and in assay [6] was more than 100 µM throughout. Moreover, the TGI was more than 100 µM in assay [7]; more than 100 µM in assay [8]; more than 100 µM in assay [9]; more than 100 µM in [10]; more than 100 µM in assay [11]; more than 66.1 µM in assay [12]. In addition, the TGI in assay [13], in assay [14], in assay [15], in assay [16], in assay [17] and in assay [18] was more than 100 µM throughout. For the same compound, the TGI in [19] and in assay [20] was more than 100 µM throughout.
For `CC(Cc1cccc2c1Nc1ccccc1S2)N(C)CCO` (stereo not given), the TGI in [1], in [2], in [3], in assay [4], in assay [5] and in [6] was more than 100 µM each time. Besides, the TGI was 93.9 µM in [7]; more than 100 µM in assay [8]; more than 100 µM in [9]; more than 100 µM in assay [10]; more than 100 µM in [11]; more than 100 µM in assay [12]. Also, the TGI in assay [13], in assay [14], in assay [15], in assay [16], in [17] and in assay [18] was more than 100 µM each time. For the same compound, the TGI in assay [19] and in [20] was more than 100 µM each time.
`CCN(CC)C(=S)N/N=C/c1cc(OC)ccc1O`: the TGI is more than 100 µM in [1]; 6.12 µM in assay [2]; more than 100 µM in [3]; more than 100 µM in assay [4]; 9.84 µM in assay [5]; more than 100 µM in [6]. In addition, the TGI is 18 µM in assay [7]; more than 100 µM in assay [8]; more than 100 µM in assay [9]; 12.5 µM in [10]; more than 100 µM in [11]; 21.6 µM in assay [12]. Besides, the TGI in assay [13], in [14], in [15], in [16], in [17] and in assay [18] was more than 100 µM in each case. Besides, the TGI in assay [19] and in assay [20] was more than 100 µM each time.
